Like-named read-outs stand apart in the source and are kept apart here.
Experiments:
[1] = Organ distribution of regorafenib in rats with or without RT; type: in vivo, Sprague-Dawley rats; conditions: for concentration at 4 h: male, Sprague-Dawley, 16 mg/kg, 4 h after oral administration
Protocol: According to the formula used to translate doses from animal to human, human equivalent dose (HED, mg/kg) = animal dose (mg/kg) × animal km/human km, we calculated the daily dose of regorafenib for rats to be 16 (mg/kg/day). The rats were randomly divided into ten groups with six rats in each group. The concurrent groups treated with regorafenib 1 h after RT, in the same day, to mimic regorafenib concurrent with RT in the daily practice. The sequential groups treated with regorafenib following RT (not in the same day), to mimic RT followed by regorafenib in the daily practice. The one fraction study group included (A) a sham group, regorafenib with RT0 Gy (regorafenib × 1 d); concurrent groups treated with regorafenib 1 h after (B) RT2 Gy with 1 fraction (RT2 Gy × 1 f’x) and (D) RT9 Gy with 1 fraction (RT9 Gy × 1 f’x); and sequential groups treated with regorafenib 24 h after (C) RT2 Gy × 1 f’x and (E) RT9 Gy × 1 f’x. Continued treatment mimicking clinical practice was applied to (A) a sham group, regorafenib (p.o. (per os), q.d. × 3 d) with RT0 Gy (regorafenib × 3 d); concurrent groups treated with regorafenib (p.o., q.d. × 3 d) 1 h after (B) RT2 Gy with 3 fractions (RT2 Gy × 3 f’x) and (D) RT9 Gy with 3 fractions (RT9Gy × 3 f’x); and sequential groups treated with regorafenib 24 h (p.o., q.d. × 3 d) after (C) RT2 Gy × 3 f’x and (E) RT9 Gy × 3 f’x. (Figure 1A,B).
Organs, including the brain, liver, heart, spleen, lung and kidney, were collected, weighed and stored at −20 °C, until analysis.
The organ samples were homogenized in 50% aqueous acetonitrile (sample weight: volume = 1:5) and centrifuged at 13,000× g, for 10 min, at 4 °C. The supernatant was stored at −20 °C, until analysis. Additionally, 150 μL of IS solution (diethylstilbestrol) was combined with each organ sample (50 μL) for protein precipitation. Finally, the filtrate (20 μL) was analyzed by HPLC.

Huh-7 cells [2] = assay: Apoptosis assay (Annexin-V FITC / PI); type: cell-based, human
Excerpt: Annexin-V FITC and propidium iodide (PI) (BD Bioscience Pharmingen (San Diego, CA, USA)) were used to identify apoptotic cells by FACScan. Cells that were positive for Annexin V and negative for PI were defined as early apoptotic cells. Cells that were positive for both Annexin V and PI were defined as late apoptotic cells.

[3] = Hepatic and renal functions (GPT, creatinine) in rats; type: in vivo, Sprague-Dawley rats; conditions: rat
Protocol: Glutamic-pyruvic transaminase (GPT) and […] were measured to check the influence of different modalities on hepatic function and renal function by a standard colorimetric method, using a Synchron LX20 spectrophotometer (Beckman Coulter) and manufacturer-supplied reagents.

Huh-7 cells [4] = assay: Morphological observation (Liu's stain); type: cell-based, human; conditions: regorafenib 0-20 μM with RT
Protocol: Huh-7 cells were treated with regorafenib at concentrations of 0, 5, 10 and 20 μmol/L (μM) in the concurrent and sequential groups with different RT doses. Then, the cells were centrifuged by using Cytospin (Shandon Inc., Pittsburgh, PA). Liu’s A solution and Liu’s B solution were used on glass slides for 45 and 90 s, respectively. Then, a light microscope (Olympus, Tokyo, Japan) was used to observe the Huh-7 cells.

- concentration at 4 h ([1]; rat, kidney, oral, rat, RT9 Gy × 1 f'x followed by regorafenib 16 mg/kg × 1 d (sequential), read-out: Concentration in kidneys): 590 ± 340 ng/g
- concentration at 4 h ([1]; rat, kidney, oral, rat, RT9 Gy × 3 f'x followed by regorafenib 16 mg/kg × 3 d (sequential), read-out: Concentration in kidneys): 400 ± 430 ng/g
- concentration at 4 h ([1]; rat, kidney, oral, rat, RT9 Gy × 3 f'x with regorafenib 16 mg/kg × 3 d (concurrent), read-out: Concentration in kidneys): 170 ± 120 ng/g
- concentration at 4 h ([1]; rat, kidney, po, rat, 16 mg/kg p.o. × 1 d, no RT, read-out: Concentration in kidneys): 340 ± 190 ng/g
- concentration at 4 h ([1]; rat, kidney, po, rat, 16 mg/kg p.o. × 3 d, no RT, read-out: Concentration in kidneys): 650 ± 250 ng/g
- concentration at 4 h ([1]; rat, liver, oral, rat, RT2 Gy × 1 f'x with regorafenib 16 mg/kg × 1 d (concurrent), read-out: Concentration in liver): 1100 ± 510 ng/g
- concentration at 4 h ([1]; rat, liver, oral, rat, RT9 Gy × 1 f'x followed by regorafenib 16 mg/kg × 1 d (sequential), read-out: Concentration in liver): 2390 ± 1200 ng/g
- concentration at 4 h ([1]; rat, liver, oral, rat, RT9 Gy × 3 f'x followed by regorafenib 16 mg/kg × 3 d (sequential), read-out: Concentration in liver): 1160 ± 1120 ng/g
- concentration at 4 h ([1]; rat, liver, oral, rat, RT9 Gy × 3 f'x with regorafenib 16 mg/kg × 3 d (concurrent), read-out: Concentration in liver): 700 ± 290 ng/g
- concentration at 4 h ([1]; rat, liver, po, rat, 16 mg/kg p.o. × 1 d, no RT, read-out: Concentration in liver): 1460 ± 340 ng/g
- concentration at 4 h ([1]; rat, liver, po, rat, 16 mg/kg p.o. × 3 d, no RT, read-out: Concentration in liver): 1450 ± 740 ng/g
- concentration at 4 h ([1]; rat, lung, oral, rat, RT2 Gy × 1 f'x with regorafenib 16 mg/kg × 1 d (concurrent), read-out: Concentration in lung): 290 ± 190 ng/g
- concentration at 4 h ([1]; rat, lung, oral, rat, RT9 Gy × 1 f'x followed by regorafenib 16 mg/kg × 1 d (sequential), read-out: Concentration in lung): 1010 ± 700 ng/g
- concentration at 4 h ([1]; rat, lung, oral, rat, RT9 Gy × 3 f'x followed by regorafenib 16 mg/kg × 3 d (sequential), read-out: Concentration in lung): 370 ± 230 ng/g
- concentration at 4 h ([1]; rat, lung, oral, rat, RT9 Gy × 3 f'x with regorafenib 16 mg/kg × 3 d (concurrent), read-out: Concentration in lung): 250 ± 180 ng/g
- concentration at 4 h ([1]; rat, lung, po, rat, 16 mg/kg p.o. × 1 d, no RT, read-out: Concentration in lung): 470 ± 180 ng/g
- concentration at 4 h ([1]; rat, lung, po, rat, 16 mg/kg p.o. × 3 d, no RT, read-out: Concentration in lung): 1120 ± 250 ng/g
- concentration at 4 h ([1]; rat, spleen, oral, rat, RT2 Gy × 1 f'x with regorafenib 16 mg/kg × 1 d (concurrent), read-out: Concentration in spleen): 190 ± 70 ng/g
- concentration at 4 h ([1]; rat, spleen, oral, rat, RT9 Gy × 1 f'x followed by regorafenib 16 mg/kg × 1 d (sequential), read-out: Concentration in spleen): 680 ± 450 ng/g
- concentration at 4 h ([1]; rat, spleen, oral, rat, RT9 Gy × 3 f'x followed by regorafenib 16 mg/kg × 3 d (sequential), read-out: Concentration in spleen): 230 ± 310 ng/g
- concentration at 4 h ([1]; rat, spleen, oral, rat, RT9 Gy × 3 f'x with regorafenib 16 mg/kg × 3 d (concurrent), read-out: Concentration in spleen): 100 ± 80 ng/g
- concentration at 4 h ([1]; rat, spleen, po, rat, 16 mg/kg p.o. × 1 d, no RT, read-out: Concentration in spleen): 260 ± 100 ng/g
- concentration at 4 h ([1]; rat, spleen, po, rat, 16 mg/kg p.o. × 3 d, no RT, read-out: Concentration in spleen): 380 ± 220 ng/g
- Concentrations of regorafenib in the brain (in words) ([1]; rat, all regimens): very limited
- Creatinine at 240 min ([3]; concurrent RT2 Gy × 1 f'x): 0.25 ± 0.06 mg/dL
- Glutamate pyruvate transaminase at 240 min ([3]; concurrent RT2 Gy × 1 f'x): 31.8 ± 5.3 UI
- Creatinine at 240 min ([3]; concurrent RT9 Gy × 1 f'x): 0.21 ± 0.02 mg/dL
- Glutamate pyruvate transaminase at 240 min ([3]; concurrent RT9 Gy × 1 f'x): 33.5 ± 8.8 UI
- Glutamate pyruvate transaminase and creatinine, regorafenib with vs without RT ([3]; different regimens and doses): no significant differences
- Creatinine at 240 min ([3]; regorafenib-only): 0.23 ± 0.04 mg/dL
- Glutamate pyruvate transaminase at 240 min ([3]; regorafenib-only): 36.3 ± 15.0 UI
- Creatinine at 240 min ([3]; sequential RT2 Gy × 1 f'x): 0.22 ± 0.04 mg/dL
- Glutamate pyruvate transaminase at 240 min ([3]; sequential RT2 Gy × 1 f'x): 30.5 ± 6.0 UI
- Creatinine at 240 min ([3]; sequential RT9 Gy × 1 f'x): 0.25 ± 0.04 mg/dL
- Glutamate pyruvate transaminase at 240 min ([3]; sequential RT9 Gy × 1 f'x): 33.7 ± 5.2 UI
SMILES: CNC(=O)c1cc(Oc2ccc(NC(=O)Nc3ccc(Cl)c(C(F)(F)F)c3)c(F)c2)ccn1 [regorafenib, Regorafenib]
- Biodistribution in heart, liver, lung, spleen and kidneys (in words) ([1]; sequential RT2 Gy × 1 f'x and RT9 Gy × 1 f'x vs control (regorafenib × 1 d)): increased the biodistribution of regorafenib
- Late apoptosis of Huh-7 cells (in words) (Huh-7 cells [2]; RT followed by regorafenib): enhanced the late apoptosis of Huh-7 cells
- Apoptosis of Huh-7 cells (in words) (Huh-7 cells [2]; regorafenib concurrent with or following RT): caused Huh-7 cell apoptosis in a dose-dependent manner
- Morphological changes (in words) (Huh-7 cells [4]): Cell shrinkage and pyknosis occurred in a dose-dependent manner

— publication PMC8035703, “Effect of Synchronous Versus Sequential Regimens on the Pharmacokinetics and Biodistribution of Regorafenib with Irradiation” (Pharmaceutics, 2021)
